Experiments:
[1] = system: JAK/STAT pathway (JAK1/JAK2-dependent nuclear translocation of STAT1-GFP); test: Inhibition of the JAK/STAT pathway: IFN-γ stimulated nuclear translocation of STAT1-GFP in HT1080 fibrosarcoma cells; format: cell-based; conditions: Homo sapiens, HT-1080; HT1080 STAT1-GFP cells, 100 ng/ml IFN-γ 2 hours, compound added 30 min before; read-out: STAT1translo IC50
In short: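 Readout is the nuclear-minus-cytoplasmic GFP-STAT1 intensity, imaged at 10× using Hoechst-defined nuclear masks over at least 1000 cells/well. Stably transfected HT1080 fibrosarcoma cells were pretreated 30 min with compound (final 0.003–10 μM, 0.1% DMSO) before IFN-γ challenge.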

GST-JAK2(808-1132) = target: T1, GST-JAK2(808-1132) (Homo sapiens, UniProt O60674); test: EPK JAK-family kinases profiling assay (Caliper mobility shift), JAK2; format: biochemical; conditions: ATP 20 μM, 1.8 nM kinase
T1 construct: GST-JAK2(808-1132); purchased Invitrogen (Carlsbad, USA) #4288
T1 sequence (O60674 808-1132): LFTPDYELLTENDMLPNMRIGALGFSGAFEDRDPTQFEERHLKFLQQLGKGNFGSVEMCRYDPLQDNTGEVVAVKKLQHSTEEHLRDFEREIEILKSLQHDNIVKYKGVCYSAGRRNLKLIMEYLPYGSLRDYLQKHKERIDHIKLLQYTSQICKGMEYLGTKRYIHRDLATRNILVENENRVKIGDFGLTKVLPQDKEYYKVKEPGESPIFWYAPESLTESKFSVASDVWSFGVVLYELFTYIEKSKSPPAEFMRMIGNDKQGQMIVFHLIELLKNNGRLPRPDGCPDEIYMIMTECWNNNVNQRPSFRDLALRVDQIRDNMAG
In short: (§1)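 Turnover was read as substrate/product ratio after mobility-shift capillary-like separation of each reaction, run for 60 min at 30 °C with GST-tagged kinase domain, labelled peptide and ATP, and terminated with EDTA stop buffer.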

GST-TYK2(888-1187) = target: T2, GST-TYK2(888-1187) (Homo sapiens, UniProt P29597); test: EPK JAK-family kinases profiling assay (Caliper mobility shift), TYK2; format: biochemical; conditions: ATP 30 μM, 40 nM kinase
T2 construct: GST-TYK2(888-1187); made in house
T2 sequence (P29597 888-1187): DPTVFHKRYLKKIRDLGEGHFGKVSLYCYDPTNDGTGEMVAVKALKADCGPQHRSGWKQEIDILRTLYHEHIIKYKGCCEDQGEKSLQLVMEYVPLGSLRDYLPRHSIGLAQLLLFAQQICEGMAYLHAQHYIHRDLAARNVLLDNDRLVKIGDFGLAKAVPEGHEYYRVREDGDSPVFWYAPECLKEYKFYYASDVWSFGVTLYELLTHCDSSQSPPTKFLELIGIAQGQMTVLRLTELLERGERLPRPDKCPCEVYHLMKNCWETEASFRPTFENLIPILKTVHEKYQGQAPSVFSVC
In short: as §1

GST-JAK3(811-1124) = target: T3, GST-JAK3(811-1124) (Homo sapiens, UniProt P52333); test: EPK JAK-family kinases profiling assay (Caliper mobility shift), JAK3; format: biochemical; conditions: ATP 80 μM, 6 nM kinase
T3 construct: GST-JAK3(811-1124); made in house
T3 sequence (P52333 811-1124): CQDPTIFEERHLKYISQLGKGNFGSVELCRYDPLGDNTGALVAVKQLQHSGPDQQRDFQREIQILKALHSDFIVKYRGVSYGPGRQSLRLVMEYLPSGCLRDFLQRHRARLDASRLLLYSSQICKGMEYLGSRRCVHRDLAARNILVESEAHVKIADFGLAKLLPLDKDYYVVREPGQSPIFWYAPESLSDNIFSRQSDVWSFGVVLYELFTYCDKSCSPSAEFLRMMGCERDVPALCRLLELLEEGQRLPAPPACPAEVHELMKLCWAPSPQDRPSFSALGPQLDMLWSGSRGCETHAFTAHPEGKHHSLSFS
In short: as §1

GST-JAK1(866-1154) = target: T4, GST-JAK1(866-1154) (Homo sapiens, UniProt P23458); test: EPK JAK-family kinases profiling assay (Caliper mobility shift), JAK1; format: biochemical; conditions: ATP 40 μM, 50 nM kinase
T4 construct: GST-JAK1(866-1154); made in house
T4 sequence (P23458 866-1154): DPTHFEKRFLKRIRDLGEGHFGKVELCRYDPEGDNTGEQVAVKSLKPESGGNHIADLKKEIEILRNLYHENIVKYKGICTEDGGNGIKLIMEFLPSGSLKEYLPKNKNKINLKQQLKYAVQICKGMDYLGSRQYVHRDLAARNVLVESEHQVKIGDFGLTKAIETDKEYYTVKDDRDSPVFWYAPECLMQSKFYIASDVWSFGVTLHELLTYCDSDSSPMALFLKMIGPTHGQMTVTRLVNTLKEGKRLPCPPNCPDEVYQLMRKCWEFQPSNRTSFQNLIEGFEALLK
In short: as §1

Row | SMILES | IC50 [1] [nM] | IC50 (GST-JAK2(808-1132)) [nM] | IC50 (GST-TYK2(888-1187)) [nM] | IC50 (GST-JAK3(811-1124)) [nM] | IC50 (GST-JAK1(866-1154)) [nM]
1 | Cc1cc(-c2cnc3cccc(-c4cc(F)c(CN5CCOCC5)c(F)c4)c3n2)ccc1CN1CCOCC1 [Example 71, 8-(3,5-Difluoro-4-morpholin-4-ylmethyl-phenyl)-2-(3-methyl-4-morpholin-4-ylmethyl-phenyl)-quinoxaline] | 2480 | 8.1 | 510 | 790 | 160
2 | COc1cc(-c2cnc3cccc(-c4ccc(CC(=O)N5CCOCC5)cc4)c3n2)ccc1OCCCN1CCOCC1 [Example 83, 2-(4-{3-[3-Methoxy-4-(3-morpholin-4-yl-propoxy)-phenyl]-quinoxalin-5-yl}-phenyl)-1-morpholin-4-yl-ethanone] | 2080 | 6.25 | 270 | 890 | 33.5
3 | COc1cc(-c2cnc3cccc(-c4cc(F)c(CN5CCOCC5)c(F)c4)c3n2)ccc1OCCCN1CCOCC1 [Example 84, 8-(3,5-Difluoro-4-morpholin-4-ylmethyl-phenyl)-2-[3-methoxy-4-(3-morpholin-4-yl-propoxy)-phenyl]-quinoxaline] | 1460 | 5.5 | 270 | 975 | 58.5
4 | COc1cc(-c2cnc3cccc(-c4ccc(CN5CCS(=O)(=O)CC5)c(F)c4)c3n2)ccc1OCCCN1CCOCC1 [Example 85, 8-[4-(1,1-Dioxido-thiomorpholin-4-ylmethyl)-3-fluoro-phenyl]-2-[3-methoxy-4-(3-morpholin-4-yl-propoxy)-phenyl]-quinoxaline] | 240 | 3.25 | 115 | 220 | 12.5
5 | COc1cc(-c2cnc3cccc(-c4cc(F)c(CN5CCS(=O)(=O)CC5)c(F)c4)c3n2)ccc1OCCCN1CCOCC1 [Example 86, 8-[4-(1,1-Dioxido-thiomorpholin-4-ylmethyl)-3,5-difluoro-phenyl]-2-[3-methoxy-4-(3-morpholin-4-yl-propoxy)-phenyl]-quinoxaline] | 93 | < 3 | 38 | 110 | 6.65
6 | CN1CCN(c2ccc(-c3cnc4cccc(-c5cc(F)c(CN6CCOCC6)c(F)c5)c4n3)cc2)CC1 [Example 87, 8-(3,5-Difluoro-4-morpholin-4-ylmethyl-phenyl)-2-[4-(4-methyl-piperazin-1-yl)-phenyl]-quinoxaline] | 1320 | 33.5 | 720 | 3500 | 225
7 | CN1CCN(c2ccc(-c3cnc4cccc(-c5ccc(CC(=O)N6CCOCC6)c(F)c5)c4n3)cc2)CC1 [Example 88, 2-(2-Fluoro-4-{3-[4-(4-methyl-piperazin-1-yl)-phenyl]-quinoxalin-5-yl}-phenyl)-1-morpholin-4-yl-ethanone] | 700 | 6.55 | 113 | 840 | 27
8 | CN1CCN(c2ccc(-c3cnc4cccc(-c5cc(F)c(C(=O)N6CCOCC6)c(F)c5)c4n3)cc2)CC1 [Example 89, (2,6-Difluoro-4-{3-[4-(4-methyl-piperazin-1-yl)-phenyl]-quinoxalin-5-yl}-phenyl)-morpholin-4-yl-methanone] | 1340 | 34 | 450 | 3950 | 135
9 | CCN1CCN(Cc2ccc(-c3cnc4cccc(-c5cc(F)c(CN6CCOCC6)c(F)c5)c4n3)cc2C)CC1 [Example 92, 8-(3,5-Difluoro-4-morpholin-4-ylmethyl-phenyl)-2-[4-(4-ethyl-piperazin-1-ylmethyl)-3-methyl-phenyl]-quinoxaline] | 2140 | 43 | 3650 | 4900 | 1380
10 | CCN1CCN(Cc2ccc(-c3cnc4cccc(-c5ccc(CN6CCOCC6)c(F)c5)c4n3)cc2C)CC1 [Example 93, 2-[4-(4-Ethyl-piperazin-1-ylmethyl)-3-methyl-phenyl]-8-(3-fluoro-4-morpholin-4-ylmethyl-phenyl)-quinoxaline] | 3010 | 22 | 670 | 1250 | 185
11 | Cc1cc(-c2cnc3cccc(-c4cc(F)c(CN5CCOCC5)c(F)c4)c3n2)ccc1C(=O)N(C)CCN(C)C [Example 94, 4-[8-(3,5-Difluoro-4-morpholin-4-ylmethyl-phenyl)-quinoxalin-2-yl]-N-(2-dimethylamino-ethyl)-2,N-dimethyl-benzamide] | 1530 | 27 | 985 | 2150 | 455
12 | Cc1cc(-c2cnc3cccc(-c4cc(F)c(CN5CCS(=O)(=O)CC5)c(F)c4)c3n2)ccc1C(=O)N(C)CCN(C)C [Example 95, N-(2-Dimethylamino-ethyl)-4-{8-[4-(1,1-dioxido-thiomorpholin-4-ylmethyl)-3,5-difluoro-phenyl]-quinoxalin-2-yl}-2,N-dimethyl-benzamide] | 105 | < 3 | 40 | 73.5 | 18
13 | O=S1(=O)CCN(Cc2c(F)cc(-c3cccc4ncc(-c5cnn(C6CCNCC6)c5)nc34)cc2F)CC1 [Example 96, 8-[4-(1,1-Dioxido-thiomorpholin-4-ylmethyl)-3,5-difluoro-phenyl]-2-(1-piperidin-4-yl-1H-pyrazol-4-yl)-quinoxaline] | 35.5 | < 3 | 50.5 | 260 | 53
14 | O=C(c1c(F)cc(-c2cccc3ncc(-c4cnn(C5CCNCC5)c4)nc23)cc1F)N1CCOCC1 [Example 97, {2,6-Difluoro-4-[3-(1-piperidin-4-yl-1H-pyrazol-4-yl)-quinoxalin-5-yl]-phenyl}-morpholin-4-yl-methanone] | 495 | 19.5 | 510 | 9150 | 720
15 | CS(=O)(=O)c1ccc(-c2cccc3ncc(-c4cnn(C5CCNCC5)c4)nc23)cc1F [Example 99, 8-(3-Fluoro-4-methanesulfonyl-phenyl)-2-(1-piperidin-4-yl-1H-pyrazol-4-yl)-quinoxaline] | 1360 | 22 | 805 | 4850 | 870
16 | Cc1cc(-c2cnc3cccc(-c4cc(F)c(CN5CCS(=O)(=O)CC5)c(F)c4)c3n2)ccc1C(=O)N1CCC(N(C)C)CC1 [Example 102, (4-Dimethylamino-piperidin-1-yl)-(4-{8-[4-(1,1-dioxido-thiomorpholin-4-ylmethyl)-3,5-difluoro-phenyl]-quinoxalin-2-yl}-2-methyl-phenyl)-methanone] | 31.5 | 74 | 2730 | 5330 | 1220
17 | CCN1CCN(c2ccc(-c3cnc4cccc(-c5cc(F)c(CN6CCOCC6)c(F)c5)c4n3)cc2C)CC1 [Example 103, 8-(3,5-Difluoro-4-morpholin-4-ylmethyl-phenyl)-2-[4-(4-ethyl-piperazin-1-yl)-3-methyl-phenyl]-quinoxaline] | 824 | 30.5 | 1200 | 3600 | 1150
18 | COc1cc(-c2cnc3cccc(-c4cc(F)c(CN5CCOCC5)c(F)c4)c3n2)ccc1N1CCN(C)CC1 [Example 104, 8-(3,5-Difluoro-4-morpholin-4-ylmethyl-phenyl)-2-[3-methoxy-4-(4-methyl-piperazin-1-yl)-phenyl]-quinoxaline] | 420 | < 3 | 130 | 390 | 52
19 | COc1cc(-c2cnc3cccc(-c4ccc(C(=O)N5CCOCC5)c(C)c4)c3n2)ccc1N1CCN(C)CC1 [Example 105, (4-{3-[3-Methoxy-4-(4-methyl-piperazin-1-yl)-phenyl]-quinoxalin-5-yl}-2-methyl-phenyl)-morpholin-4-yl-methanone] | 895 | 32 | 985 | 1800 | 810
20 | COc1cc(-c2cnc3cccc(-c4cc(F)c(CN5CCS(=O)(=O)CC5)c(F)c4)c3n2)ccn1 [Example 106, 8-[4-(1,1-Dioxido-thiomorpholin-4-ylmethyl)-3,5-difluoro-phenyl]-2-(2-methoxy-pyridin-4-yl)-quinoxaline] | 202 | 82 | 1970 | 195 | 365
21 | CN1CCN(c2ccc(-c3cnc4cccc(-c5cc(F)c(CN6CCOCC6)c(F)c5)c4n3)cn2)CC1 [Example 107, 8-(3,5-Difluoro-4-morpholin-4-ylmethyl-phenyl)-2-[6-(4-methyl-piperazin-1-yl)-pyridin-3-yl]-quinoxaline] | 2470 | 95.5 | 2950 | 9800 | 1350
